Reference: the kinase profiling compilation of Christmann-Franck et al. (2016)

What was measured:
Assay in all cases: radiometric filter-binding kinase assay, Kinase HotSpot
Conditions in all cases: compound 0.5 µM; ATP 10 µM
PRKG2 (human) = PRKG2 (human) (UniProt Q13237)
AKT2 (human) = AKT2 (human) (UniProt P31751)
CAMK2A (human) = CAMK2A (human) (UniProt Q9UQM7)
DYRK3 (human) = DYRK3 (human) (UniProt O43781)
NEK6 (human) = NEK6 (human) (UniProt Q9HC98)
CSNK1G1 (human) = CSNK1G1 (human) (UniProt Q9HCP0)
MAP4K2 (human) = MAP4K2 (human) (UniProt Q12851)
GRK4 (human) = GRK4 (human) (UniProt P32298)
CHUK (human) = CHUK (human) (UniProt O15111)
MAPK10 (human) = MAPK10 (human) (UniProt P53779)
PRKD2 (human) = PRKD2 (human) (UniProt Q9BZL6)
EPHA5 (human) = EPHA5 (human) (UniProt P54756)
MAPK1 (human) = MAPK1 (human) (UniProt P28482)
MINK1 (human) = MINK1 (human) (UniProt Q8N4C8)
CDK1 CCNA2 (human) = CDK1 CCNA2 (human) (UniProt P06493+P20248)
PAK6 (human) = PAK6 (human) (UniProt Q9NQU5)
HIPK2 (human) = HIPK2 (human) (UniProt Q9H2X6)
PRKCI (human) = PRKCI (human) (UniProt P41743)
SRPK2 (human) = SRPK2 (human) (UniProt P78362)
MAPKAPK5 (human) = MAPKAPK5 (human) (UniProt Q8IW41)
CAMK4 (human) = CAMK4 (human) (UniProt Q16566)
BTK (human) = BTK (human) (UniProt Q06187)
ABL2 (human) = ABL2 (human) (UniProt P42684)
STK33 (human) = STK33 (human) (UniProt Q9BYT3)
CDK2 CCNE1 (human) = CDK2 CCNE1 (human) (UniProt P24941+P24864)
MAP3K10 (human) = MAP3K10 (human) (UniProt Q02779)
TSSK1B (human) = TSSK1B (human) (UniProt Q9BXA7)
NTRK2 (human) = NTRK2 (human) (UniProt Q16620)
CDK7 CCNH MNAT1 (human) = CDK7 CCNH MNAT1 (human) (UniProt P50613+P51948+P51946)
MKNK2 (human) = MKNK2 (human) (UniProt Q9HBH9)
CDK2 CCNA2 (human) = CDK2 CCNA2 (human) (UniProt P24941+P20248)
KIT (human) = KIT (human) (UniProt P10721)
IGF1R (human) = IGF1R (human) (UniProt P08069)
CAMK1 (human) = CAMK1 (human) (UniProt Q14012)
PRKCB2 (human) = PRKCB2 (human) (UniProt P05771)
NEK3 (human) = NEK3 (human) (UniProt P51956)
MELK (human) = MELK (human) (UniProt Q14680)
TGFBR1 (human) = TGFBR1 (human) (UniProt P36897)
PDPK1 (human) = PDPK1 (human) (UniProt O15530)
SRPK3 (human) = SRPK3 (human) (UniProt Q9UPE1)
ACVRL1 (human) = ACVRL1 (human) (UniProt P37023)
GRK5 (human) = GRK5 (human) (UniProt P34947)

Chain of MKNK2 (human) (Q9HBH9 whole entry, looked up): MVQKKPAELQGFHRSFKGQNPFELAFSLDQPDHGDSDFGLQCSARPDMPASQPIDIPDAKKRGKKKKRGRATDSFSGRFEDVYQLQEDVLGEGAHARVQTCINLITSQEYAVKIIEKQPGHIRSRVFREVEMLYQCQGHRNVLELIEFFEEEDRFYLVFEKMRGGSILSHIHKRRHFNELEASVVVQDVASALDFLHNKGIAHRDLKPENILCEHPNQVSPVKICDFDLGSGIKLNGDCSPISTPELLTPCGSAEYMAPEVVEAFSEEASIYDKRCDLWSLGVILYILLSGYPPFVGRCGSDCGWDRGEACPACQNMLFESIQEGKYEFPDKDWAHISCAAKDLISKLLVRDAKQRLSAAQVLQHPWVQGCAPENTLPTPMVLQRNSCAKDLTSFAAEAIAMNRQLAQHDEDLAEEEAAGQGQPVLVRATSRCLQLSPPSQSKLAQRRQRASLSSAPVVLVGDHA
Chain of ACVRL1 (human) (P37023 whole entry, looked up): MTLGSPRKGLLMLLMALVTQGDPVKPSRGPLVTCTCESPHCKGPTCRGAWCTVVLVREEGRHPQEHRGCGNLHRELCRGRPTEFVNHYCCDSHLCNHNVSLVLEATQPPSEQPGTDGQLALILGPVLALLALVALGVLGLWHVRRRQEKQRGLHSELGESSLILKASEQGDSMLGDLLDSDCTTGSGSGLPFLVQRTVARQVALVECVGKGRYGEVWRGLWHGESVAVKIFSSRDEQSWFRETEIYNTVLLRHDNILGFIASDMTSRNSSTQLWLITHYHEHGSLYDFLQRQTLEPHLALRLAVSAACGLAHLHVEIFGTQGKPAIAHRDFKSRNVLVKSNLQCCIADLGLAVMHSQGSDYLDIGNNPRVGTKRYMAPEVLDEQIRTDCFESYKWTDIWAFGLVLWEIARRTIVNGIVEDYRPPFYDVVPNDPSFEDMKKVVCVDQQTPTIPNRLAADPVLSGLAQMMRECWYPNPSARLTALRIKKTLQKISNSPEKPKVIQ
Chain of PRKD2 (human) (Q9BZL6 whole entry, looked up): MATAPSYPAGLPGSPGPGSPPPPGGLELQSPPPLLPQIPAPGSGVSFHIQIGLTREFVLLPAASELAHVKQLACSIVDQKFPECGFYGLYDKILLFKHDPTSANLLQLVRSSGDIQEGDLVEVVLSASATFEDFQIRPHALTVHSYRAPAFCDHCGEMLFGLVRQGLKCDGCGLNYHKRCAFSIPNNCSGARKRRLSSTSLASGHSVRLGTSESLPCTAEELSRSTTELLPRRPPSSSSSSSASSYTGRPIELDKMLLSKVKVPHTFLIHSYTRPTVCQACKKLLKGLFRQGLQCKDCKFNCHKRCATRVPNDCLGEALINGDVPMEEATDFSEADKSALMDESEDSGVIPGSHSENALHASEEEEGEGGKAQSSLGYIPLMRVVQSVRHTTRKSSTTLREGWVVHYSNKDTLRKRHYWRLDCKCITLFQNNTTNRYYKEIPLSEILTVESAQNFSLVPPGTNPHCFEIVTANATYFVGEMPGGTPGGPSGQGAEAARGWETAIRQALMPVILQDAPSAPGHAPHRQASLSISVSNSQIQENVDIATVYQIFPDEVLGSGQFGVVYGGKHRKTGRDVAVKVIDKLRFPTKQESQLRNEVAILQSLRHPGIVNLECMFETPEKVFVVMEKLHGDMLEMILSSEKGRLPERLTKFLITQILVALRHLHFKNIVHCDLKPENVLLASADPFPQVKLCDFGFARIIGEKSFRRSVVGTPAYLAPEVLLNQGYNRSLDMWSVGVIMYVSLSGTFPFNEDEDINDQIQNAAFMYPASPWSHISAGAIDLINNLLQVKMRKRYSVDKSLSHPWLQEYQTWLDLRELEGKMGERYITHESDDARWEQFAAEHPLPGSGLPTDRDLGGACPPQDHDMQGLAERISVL
Chain of NEK3 (human) (P51956 whole entry, looked up): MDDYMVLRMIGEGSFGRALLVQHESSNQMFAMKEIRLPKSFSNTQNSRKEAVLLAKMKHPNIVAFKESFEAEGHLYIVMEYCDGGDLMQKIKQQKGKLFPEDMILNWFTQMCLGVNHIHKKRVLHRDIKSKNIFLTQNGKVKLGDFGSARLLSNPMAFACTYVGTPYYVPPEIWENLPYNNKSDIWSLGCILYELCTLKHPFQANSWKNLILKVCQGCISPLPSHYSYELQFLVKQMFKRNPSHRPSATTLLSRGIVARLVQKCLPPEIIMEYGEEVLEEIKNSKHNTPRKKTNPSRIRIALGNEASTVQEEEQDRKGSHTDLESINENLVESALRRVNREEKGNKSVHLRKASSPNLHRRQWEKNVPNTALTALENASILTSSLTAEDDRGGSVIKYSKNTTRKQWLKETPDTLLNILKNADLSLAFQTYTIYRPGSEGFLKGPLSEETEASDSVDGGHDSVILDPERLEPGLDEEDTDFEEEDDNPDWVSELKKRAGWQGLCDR
Chain of NEK6 (human) (Q9HC98 whole entry, looked up): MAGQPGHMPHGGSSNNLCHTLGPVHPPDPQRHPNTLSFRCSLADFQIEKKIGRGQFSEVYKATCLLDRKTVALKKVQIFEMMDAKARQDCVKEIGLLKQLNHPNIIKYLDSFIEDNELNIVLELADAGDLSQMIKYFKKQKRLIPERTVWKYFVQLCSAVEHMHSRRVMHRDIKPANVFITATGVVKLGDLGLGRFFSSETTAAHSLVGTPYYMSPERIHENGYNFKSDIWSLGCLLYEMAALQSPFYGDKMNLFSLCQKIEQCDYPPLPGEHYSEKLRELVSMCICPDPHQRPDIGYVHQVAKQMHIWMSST
Chain of GRK4 (human) (P32298 whole entry, looked up): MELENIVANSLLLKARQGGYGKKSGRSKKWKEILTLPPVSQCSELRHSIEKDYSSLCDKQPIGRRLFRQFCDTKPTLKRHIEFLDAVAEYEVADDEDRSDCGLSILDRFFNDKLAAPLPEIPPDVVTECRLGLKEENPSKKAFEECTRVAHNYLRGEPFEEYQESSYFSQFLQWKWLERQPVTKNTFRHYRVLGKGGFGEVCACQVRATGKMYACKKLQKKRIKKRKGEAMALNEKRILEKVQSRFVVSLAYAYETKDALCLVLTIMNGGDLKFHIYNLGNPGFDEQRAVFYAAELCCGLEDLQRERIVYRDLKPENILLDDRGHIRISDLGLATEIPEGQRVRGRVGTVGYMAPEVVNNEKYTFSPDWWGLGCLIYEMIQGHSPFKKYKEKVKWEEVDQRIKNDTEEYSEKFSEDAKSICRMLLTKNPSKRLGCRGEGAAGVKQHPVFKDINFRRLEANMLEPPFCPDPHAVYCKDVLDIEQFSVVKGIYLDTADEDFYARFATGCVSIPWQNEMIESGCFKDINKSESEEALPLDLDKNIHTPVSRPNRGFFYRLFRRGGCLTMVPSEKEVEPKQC
Chain of CDK2 CCNE1 (human) (P24864 whole entry, looked up, other chains not shown): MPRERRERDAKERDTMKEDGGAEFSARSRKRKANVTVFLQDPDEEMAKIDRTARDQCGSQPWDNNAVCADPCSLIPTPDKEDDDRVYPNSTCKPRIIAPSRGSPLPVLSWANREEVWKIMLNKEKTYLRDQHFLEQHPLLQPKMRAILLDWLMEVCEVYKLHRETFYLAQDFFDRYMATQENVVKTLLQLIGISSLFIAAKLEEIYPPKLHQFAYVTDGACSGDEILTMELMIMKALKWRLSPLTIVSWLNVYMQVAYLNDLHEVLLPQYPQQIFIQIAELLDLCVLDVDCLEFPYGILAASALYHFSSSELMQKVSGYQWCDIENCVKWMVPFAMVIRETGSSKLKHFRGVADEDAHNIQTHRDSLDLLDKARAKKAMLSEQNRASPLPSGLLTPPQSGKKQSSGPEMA
Chain of SRPK2 (human) (P78362 whole entry, looked up): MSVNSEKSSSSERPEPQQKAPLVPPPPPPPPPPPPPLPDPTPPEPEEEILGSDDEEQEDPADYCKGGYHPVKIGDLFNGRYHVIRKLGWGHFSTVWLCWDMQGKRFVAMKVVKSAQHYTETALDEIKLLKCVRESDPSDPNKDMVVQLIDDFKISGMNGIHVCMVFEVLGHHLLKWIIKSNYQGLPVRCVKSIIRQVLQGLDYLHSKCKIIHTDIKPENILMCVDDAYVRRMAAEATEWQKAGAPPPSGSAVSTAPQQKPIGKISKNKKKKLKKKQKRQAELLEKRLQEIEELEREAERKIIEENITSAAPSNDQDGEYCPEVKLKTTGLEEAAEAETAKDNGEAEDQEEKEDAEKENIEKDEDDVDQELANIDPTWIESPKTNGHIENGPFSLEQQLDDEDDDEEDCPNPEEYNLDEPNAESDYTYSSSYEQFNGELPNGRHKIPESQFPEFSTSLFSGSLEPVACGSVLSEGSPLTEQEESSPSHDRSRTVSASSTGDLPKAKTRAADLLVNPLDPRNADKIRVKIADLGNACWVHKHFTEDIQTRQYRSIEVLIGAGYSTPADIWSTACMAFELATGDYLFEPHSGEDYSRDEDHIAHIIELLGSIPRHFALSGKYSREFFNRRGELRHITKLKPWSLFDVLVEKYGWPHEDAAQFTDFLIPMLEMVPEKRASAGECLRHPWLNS
Chain of TSSK1B (human) (Q9BXA7 whole entry, looked up): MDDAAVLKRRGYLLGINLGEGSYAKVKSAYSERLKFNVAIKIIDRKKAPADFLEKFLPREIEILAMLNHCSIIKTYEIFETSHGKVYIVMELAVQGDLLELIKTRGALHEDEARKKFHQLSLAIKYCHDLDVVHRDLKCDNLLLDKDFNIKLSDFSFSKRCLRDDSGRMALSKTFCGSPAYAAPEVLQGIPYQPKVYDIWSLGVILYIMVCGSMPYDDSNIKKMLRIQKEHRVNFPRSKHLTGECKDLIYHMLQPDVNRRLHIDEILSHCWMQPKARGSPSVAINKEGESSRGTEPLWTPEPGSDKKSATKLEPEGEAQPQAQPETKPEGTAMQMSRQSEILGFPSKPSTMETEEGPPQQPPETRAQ

In the case of `CSc1nc(-c2ccc(F)cc2)c(-c2ccnc(NC(C)c3ccccc3)c2)[nH]1` (configuration not stated), the residual activity (PRKG2 (human)) is reported as 102%, the residual activity (AKT2 (human)) is reported as 96.8% and the residual activity (CAMK2A (human)) is reported as 96.5%. For the same compound, the residual activity (DYRK3 (human)) was 94.2%, the residual activity (NEK6 (human)) was 106% and the residual activity (CSNK1G1 (human)) was 67.2%. It also gave a residual activity (MAP4K2 (human)) of 82.5%, a residual activity (GRK4 (human)) of 90.6% and a residual activity (CHUK (human)) of 98.4%. It also gave a residual activity (MAPK10 (human)) of 125%, a residual activity (PRKD2 (human)) of 86.4% and a residual activity (EPHA5 (human)) of 106%. For the same compound, the residual activity (MAPK1 (human)) was 102%, the residual activity (MINK1 (human)) was 89.6% and the residual activity (CDK1 CCNA2 (human)) was 78%. For the same compound, the residual activity (PAK6 (human)) was 93.5%, the residual activity (HIPK2 (human)) was 99.9% and the residual activity (PRKCI (human)) was 91.9%. The residual activity (SRPK2 (human)) was 94.4%, the residual activity (MAPKAPK5 (human)) was 115% and the residual activity (CAMK4 (human)) was 106%. For the same compound, the residual activity (BTK (human)) was 76.6%, the residual activity (ABL2 (human)) was 95.7% and the residual activity (STK33 (human)) was 107%. It also gave a residual activity (CDK2 CCNE1 (human)) of 88%, a residual activity (MAP3K10 (human)) of 90.6% and a residual activity (TSSK1B (human)) of 73.5%. For the same compound, the residual activity (NTRK2 (human)) was 88.5%, the residual activity (CDK7 CCNH MNAT1 (human)) was 97.2% and the residual activity (MKNK2 (human)) was 105%. It also gave a residual activity (CDK2 CCNA2 (human)) of 96.8%, a residual activity (KIT (human)) of 92.4% and a residual activity (IGF1R (human)) of 101%. The residual activity (CAMK1 (human)) was 96.2%, the residual activity (PRKCB2 (human)) was 101% and the residual activity (NEK3 (human)) was 94.7%. The residual activity (MELK (human)) was 94.2%, the residual activity (TGFBR1 (human)) was 93.3% and the residual activity (PDPK1 (human)) was 91.3%. The residual activity (SRPK3 (human)) was 92.8%, the residual activity (ACVRL1 (human)) was 92.2% and the residual activity (GRK5 (human)) was 103%.
